Measurements published in patent publication US20110230481A2, “DERIVATIVES OF TETRABROMOBENZIMIDAZOLE, A PROCESS FOR THE PREPARATION THEREOF, A PHARMACEUTICAL COMPOSITION COMPRISING THE SAME, A METHOD OF USING THE SAME, A METHOD FOR MODULATING OR REGULATING SERINE/THREONINE KINASES, AND SERINE/THREONINE KINASES MODULATING AGENT” (SELVITA S.A., priority 2009, published 2011).

Legend:
Assay in all cases: KINOMEscan Max
Format in all cases: binding
MET(Y1235D) = biological target: T1, MET(Y1235D) (Homo sapiens, UniProt P08581, Y1235D); conditions: 1 μM
T1 construct: purchased Ambit (KINOMEscan Max service)
Procedure: (§1) Kinase panel profiling was performed at Ambit Kinomescan (http://www.ambitbio.com/technology/) using the “KINOMEscan™ Max” assay platform, a high-throughput method for screening small molecule compounds against large numbers of human kinases. KINOMEscan™ is based on a competition binding assay that quantitatively measures the ability of a compound to compete with an immobilized, active-site directed ligand. The assay is performed by combining three components: DNA-tagged kinase; immobilized ligand; and a test compound. The ability of the test compound to compete with the immobilized ligand is measured via quantitative PCR of the DNA tag. For a description of Ambit's assay protocol, see Fabian et al. A small molecule-kinase interaction map for clinical kinase inhibitors. Nat. Biotechnol. 23, 329-336 (2005).

RET(M918T) = biological target: T2, RET(M918T) (Homo sapiens, UniProt P07949, M918T)
T2 construct: DNA tag (qPCR read-out)
Procedure: as §1

CAMK1G = biological target: T3, CAMK1G (Homo sapiens, UniProt Q96NX5)
T3 construct: DNA tag (qPCR label); purchased Ambit Kinomescan (contract screening)
Procedure: as §1

FGFR4 = biological target: T4, FGFR4 (Homo sapiens, UniProt P22455)
T4 construct: purchased Ambit (KINOMEscan Max service)
Procedure: as §1

PKAC-alpha = biological target: T5, PKAC-alpha (Homo sapiens, UniProt P17612)
T5 construct: purchased Ambit (KINOMEscan Max service)
Procedure: as §1

ULK3 = biological target: T6, ULK3 (Homo sapiens, UniProt Q6PHR2); conditions: 1 μM
T6 construct: purchased Ambit Kinomescan (contract screening service)
Procedure: as §1

CSNK1A1L = CSNK1A1L (Homo sapiens, UniProt Q8N752)
Procedure: as §1

ADCK4 = biological target: T7, ADCK4 (Homo sapiens, UniProt Q96D53)
T7 construct: DNA tag (qPCR read-out)
Procedure: as §1

MLK2 = MLK2 (Homo sapiens, UniProt Q02779)
Procedure: as §1

[1] = biological target: T8, RPS6KA4(Kin.Dom.2-C-terminal) (Homo sapiens, UniProt O75676)
T8 construct: RPS6KA4(Kin.Dom.2-C-terminal); purchased Ambit Kinomescan (contract screening)
Procedure: as §1

[2] = biological target: T9, RPS6KA4(Kin.Dom.1-N-terminal) (Homo sapiens, UniProt O75676)
T9 construct: RPS6KA4(Kin.Dom.1-N-terminal); DNA tag (qPCR read-out)
Procedure: as §1

[3] = biological target: T10, JAK1(JH2domain-pseudokinase) (Homo sapiens, UniProt P23458); conditions: 1 μM
T10 construct: JAK1(JH2domain-pseudokinase)
Procedure: as §1

MRCKB = MRCKB (Homo sapiens, UniProt Q9Y5S2)
Procedure: as §1

TRPM6 = TRPM6 (Homo sapiens, UniProt Q9BX84)
Procedure: as §1

RIOK2 = biological target: T11, RIOK2 (Homo sapiens, UniProt Q9BVS4)
T11 construct: DNA tag (qPCR read-out)
Procedure: as §1

TAOK2 = biological target: T12, TAOK2 (Homo sapiens, UniProt Q9UL54)
T12 construct: DNA tag (qPCR read-out)
Procedure: as §1

CIT = CIT (Homo sapiens, UniProt O14578); conditions: 1 μM
Procedure: as §1

STK16 = biological target: T13, STK16 (Homo sapiens, UniProt O75716)
T13 construct: DNA tag (qPCR read-out)
Procedure: as §1

IGF1R = biological target: T14, IGF1R (Homo sapiens, UniProt P08069)
T14 construct: purchased Ambit Kinomescan (contract panel, KINOMEscan Max)
Procedure: as §1

PRKX = biological target: T15, PRKX (Homo sapiens, UniProt P51817)
T15 construct: DNA tag (qPCR read-out)
Procedure: as §1

PAK6 = PAK6 (Homo sapiens, UniProt Q9NQU5)
Procedure: as §1

YSK4 = YSK4 (Homo sapiens, UniProt Q56UN5)
Procedure: as §1

EGFR(L747-T751del.Sins) = biological target: T16, EGFR(L747-T751del.Sins) (Homo sapiens, UniProt P00533, DEL747-750/T751S); conditions: 1 μM
T16 construct: purchased Ambit (KINOMEscan Max panel service)
Procedure: as §1

MAPKAPK5 = biological target: T17, MAPKAPK5 (Homo sapiens, UniProt Q8IW41)
T17 construct: purchased Ambit Kinomescan (contract panel)
Procedure: as §1

SRC = biological target: T18, SRC (Homo sapiens, UniProt P12931)
T18 construct: purchased Ambit Kinomescan (contract screening)
Procedure: as §1

RAF1 = biological target: T19, RAF1 (Homo sapiens, UniProt P04049)
T19 construct: DNA tag (qPCR read-out)
Procedure: as §1

LTK = biological target: T20, LTK (Homo sapiens, UniProt P29376)
T20 construct: purchased Ambit Kinomescan (contract panel)
Procedure: as §1

PIK3CA(H1047L) = biological target: T21, PIK3CA(H1047L) (Homo sapiens, UniProt P42336, H1047L)
T21 construct: DNA tag (qPCR read-out)
Procedure: as §1

GRK4 = biological target: T22, GRK4 (Homo sapiens, UniProt P32298)
T22 construct: purchased Ambit Kinomescan (contract panel, KINOMEscan Max)
Procedure: as §1

CDKL1 = biological target: T23, CDKL1 (Homo sapiens, UniProt Q00532)
T23 construct: DNA tag (qPCR label); purchased Ambit Kinomescan (contract screening)
Procedure: as §1

EGFR(T790M) = biological target: T24, EGFR(T790M) (Homo sapiens, UniProt P00533, T790M); conditions: 1 μM
T24 construct: purchased Ambit (KINOMEscan Max panel service)
Procedure: as §1

IKK-epsilon = biological target: T25, IKK-epsilon (Homo sapiens, UniProt Q14164)
T25 construct: purchased Ambit Kinomescan (contract panel, KINOMEscan Max)
Procedure: as §1

HIPK4 = biological target: T26, HIPK4 (Homo sapiens, UniProt Q8NE63)
T26 construct: DNA tag (qPCR read-out)
Procedure: as §1

T9 sequence (O75676 33-301 limits assumed): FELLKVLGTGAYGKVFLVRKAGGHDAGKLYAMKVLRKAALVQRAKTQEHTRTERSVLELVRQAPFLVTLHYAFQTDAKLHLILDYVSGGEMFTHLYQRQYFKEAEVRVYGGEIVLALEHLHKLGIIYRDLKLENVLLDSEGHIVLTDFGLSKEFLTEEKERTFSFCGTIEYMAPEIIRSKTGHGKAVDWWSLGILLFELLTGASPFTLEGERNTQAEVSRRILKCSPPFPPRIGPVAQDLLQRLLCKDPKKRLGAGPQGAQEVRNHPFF
T6 sequence (Q6PHR2 whole entry): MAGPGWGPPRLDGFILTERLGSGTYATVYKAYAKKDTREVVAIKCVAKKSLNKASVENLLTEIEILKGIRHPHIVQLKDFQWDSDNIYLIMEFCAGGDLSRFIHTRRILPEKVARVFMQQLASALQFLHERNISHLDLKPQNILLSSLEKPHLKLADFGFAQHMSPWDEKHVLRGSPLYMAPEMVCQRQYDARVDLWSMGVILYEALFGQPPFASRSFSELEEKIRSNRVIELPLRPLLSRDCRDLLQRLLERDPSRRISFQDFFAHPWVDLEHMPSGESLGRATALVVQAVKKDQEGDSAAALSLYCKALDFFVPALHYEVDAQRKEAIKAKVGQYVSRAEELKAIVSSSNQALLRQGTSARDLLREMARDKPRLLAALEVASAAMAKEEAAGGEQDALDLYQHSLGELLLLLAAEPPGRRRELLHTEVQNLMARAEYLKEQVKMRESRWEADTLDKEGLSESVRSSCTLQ
T23 sequence (Q00532 whole entry): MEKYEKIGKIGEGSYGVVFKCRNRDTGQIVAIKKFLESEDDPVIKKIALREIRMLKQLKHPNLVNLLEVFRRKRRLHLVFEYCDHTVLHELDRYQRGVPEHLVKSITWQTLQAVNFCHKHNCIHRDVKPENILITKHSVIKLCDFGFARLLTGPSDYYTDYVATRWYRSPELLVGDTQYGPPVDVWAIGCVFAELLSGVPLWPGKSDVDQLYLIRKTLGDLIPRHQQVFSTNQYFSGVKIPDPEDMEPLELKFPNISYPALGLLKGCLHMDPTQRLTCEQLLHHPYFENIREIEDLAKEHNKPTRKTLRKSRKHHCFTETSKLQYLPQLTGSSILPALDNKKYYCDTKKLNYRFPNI
T21 sequence (P42336 whole entry H1047L): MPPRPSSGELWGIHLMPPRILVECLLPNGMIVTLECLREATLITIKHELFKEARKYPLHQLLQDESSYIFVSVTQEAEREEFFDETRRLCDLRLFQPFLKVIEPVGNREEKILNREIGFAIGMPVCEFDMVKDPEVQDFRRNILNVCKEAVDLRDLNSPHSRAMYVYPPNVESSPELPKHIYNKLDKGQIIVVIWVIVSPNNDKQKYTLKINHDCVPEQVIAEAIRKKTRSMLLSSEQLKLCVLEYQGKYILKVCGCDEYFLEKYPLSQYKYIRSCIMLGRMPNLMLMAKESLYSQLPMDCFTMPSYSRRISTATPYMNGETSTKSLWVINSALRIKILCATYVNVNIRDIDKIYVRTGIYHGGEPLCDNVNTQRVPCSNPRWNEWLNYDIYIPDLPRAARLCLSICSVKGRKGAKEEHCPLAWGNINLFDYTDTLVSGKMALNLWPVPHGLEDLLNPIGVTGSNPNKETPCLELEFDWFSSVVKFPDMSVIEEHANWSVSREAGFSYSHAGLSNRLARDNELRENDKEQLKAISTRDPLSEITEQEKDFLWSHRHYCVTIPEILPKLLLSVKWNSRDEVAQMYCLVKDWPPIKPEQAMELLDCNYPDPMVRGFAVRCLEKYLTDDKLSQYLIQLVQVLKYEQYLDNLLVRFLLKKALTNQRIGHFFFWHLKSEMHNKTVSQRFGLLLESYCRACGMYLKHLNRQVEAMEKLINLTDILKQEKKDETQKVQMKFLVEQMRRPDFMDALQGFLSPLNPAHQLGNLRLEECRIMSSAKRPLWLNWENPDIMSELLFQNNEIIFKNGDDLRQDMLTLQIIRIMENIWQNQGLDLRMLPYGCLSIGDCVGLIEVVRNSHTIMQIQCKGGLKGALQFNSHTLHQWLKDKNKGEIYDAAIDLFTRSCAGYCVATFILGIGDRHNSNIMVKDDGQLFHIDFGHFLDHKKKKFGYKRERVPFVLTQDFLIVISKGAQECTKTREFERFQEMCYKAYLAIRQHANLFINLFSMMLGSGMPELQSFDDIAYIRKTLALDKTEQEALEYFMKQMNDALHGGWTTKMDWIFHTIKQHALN
T15 sequence (P51817 whole entry): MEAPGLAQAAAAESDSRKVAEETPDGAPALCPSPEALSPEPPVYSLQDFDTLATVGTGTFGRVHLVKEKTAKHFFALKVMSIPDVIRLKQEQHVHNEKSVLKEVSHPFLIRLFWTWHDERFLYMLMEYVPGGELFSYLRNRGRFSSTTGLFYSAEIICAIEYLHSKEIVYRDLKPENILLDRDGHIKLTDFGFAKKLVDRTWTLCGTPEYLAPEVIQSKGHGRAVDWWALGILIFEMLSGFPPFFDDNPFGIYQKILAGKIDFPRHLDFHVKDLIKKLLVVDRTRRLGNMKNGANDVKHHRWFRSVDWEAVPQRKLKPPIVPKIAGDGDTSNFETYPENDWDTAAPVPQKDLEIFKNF
T11 sequence (Q9BVS4 whole entry): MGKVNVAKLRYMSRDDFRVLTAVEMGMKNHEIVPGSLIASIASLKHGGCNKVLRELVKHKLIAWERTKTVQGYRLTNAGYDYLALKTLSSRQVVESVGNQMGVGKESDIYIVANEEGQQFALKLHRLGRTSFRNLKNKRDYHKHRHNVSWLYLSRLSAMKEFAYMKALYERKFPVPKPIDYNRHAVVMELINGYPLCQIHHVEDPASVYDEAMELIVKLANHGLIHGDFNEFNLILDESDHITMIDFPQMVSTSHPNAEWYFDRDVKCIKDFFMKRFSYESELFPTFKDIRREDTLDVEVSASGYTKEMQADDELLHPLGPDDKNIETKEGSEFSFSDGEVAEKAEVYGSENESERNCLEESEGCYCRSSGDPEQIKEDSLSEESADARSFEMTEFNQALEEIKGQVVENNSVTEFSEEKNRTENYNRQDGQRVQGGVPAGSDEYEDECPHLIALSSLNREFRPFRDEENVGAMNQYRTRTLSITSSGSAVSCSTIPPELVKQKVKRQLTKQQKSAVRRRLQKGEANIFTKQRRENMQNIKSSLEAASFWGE
T18 sequence (P12931 whole entry): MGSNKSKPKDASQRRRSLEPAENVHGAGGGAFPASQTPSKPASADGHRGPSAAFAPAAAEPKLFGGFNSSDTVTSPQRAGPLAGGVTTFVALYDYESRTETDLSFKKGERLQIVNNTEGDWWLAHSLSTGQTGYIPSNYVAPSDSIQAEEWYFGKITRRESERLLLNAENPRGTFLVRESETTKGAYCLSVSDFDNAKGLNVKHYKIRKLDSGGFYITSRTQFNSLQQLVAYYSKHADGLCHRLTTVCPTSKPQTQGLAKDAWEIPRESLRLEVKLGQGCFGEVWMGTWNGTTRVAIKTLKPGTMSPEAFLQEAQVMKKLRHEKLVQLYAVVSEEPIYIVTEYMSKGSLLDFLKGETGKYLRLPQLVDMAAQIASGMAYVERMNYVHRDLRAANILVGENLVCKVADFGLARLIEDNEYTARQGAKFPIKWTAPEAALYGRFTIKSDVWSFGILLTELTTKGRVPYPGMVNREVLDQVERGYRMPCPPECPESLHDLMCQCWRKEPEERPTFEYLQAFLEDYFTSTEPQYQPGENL
Sequence of YSK4 (Q56UN5 whole entry): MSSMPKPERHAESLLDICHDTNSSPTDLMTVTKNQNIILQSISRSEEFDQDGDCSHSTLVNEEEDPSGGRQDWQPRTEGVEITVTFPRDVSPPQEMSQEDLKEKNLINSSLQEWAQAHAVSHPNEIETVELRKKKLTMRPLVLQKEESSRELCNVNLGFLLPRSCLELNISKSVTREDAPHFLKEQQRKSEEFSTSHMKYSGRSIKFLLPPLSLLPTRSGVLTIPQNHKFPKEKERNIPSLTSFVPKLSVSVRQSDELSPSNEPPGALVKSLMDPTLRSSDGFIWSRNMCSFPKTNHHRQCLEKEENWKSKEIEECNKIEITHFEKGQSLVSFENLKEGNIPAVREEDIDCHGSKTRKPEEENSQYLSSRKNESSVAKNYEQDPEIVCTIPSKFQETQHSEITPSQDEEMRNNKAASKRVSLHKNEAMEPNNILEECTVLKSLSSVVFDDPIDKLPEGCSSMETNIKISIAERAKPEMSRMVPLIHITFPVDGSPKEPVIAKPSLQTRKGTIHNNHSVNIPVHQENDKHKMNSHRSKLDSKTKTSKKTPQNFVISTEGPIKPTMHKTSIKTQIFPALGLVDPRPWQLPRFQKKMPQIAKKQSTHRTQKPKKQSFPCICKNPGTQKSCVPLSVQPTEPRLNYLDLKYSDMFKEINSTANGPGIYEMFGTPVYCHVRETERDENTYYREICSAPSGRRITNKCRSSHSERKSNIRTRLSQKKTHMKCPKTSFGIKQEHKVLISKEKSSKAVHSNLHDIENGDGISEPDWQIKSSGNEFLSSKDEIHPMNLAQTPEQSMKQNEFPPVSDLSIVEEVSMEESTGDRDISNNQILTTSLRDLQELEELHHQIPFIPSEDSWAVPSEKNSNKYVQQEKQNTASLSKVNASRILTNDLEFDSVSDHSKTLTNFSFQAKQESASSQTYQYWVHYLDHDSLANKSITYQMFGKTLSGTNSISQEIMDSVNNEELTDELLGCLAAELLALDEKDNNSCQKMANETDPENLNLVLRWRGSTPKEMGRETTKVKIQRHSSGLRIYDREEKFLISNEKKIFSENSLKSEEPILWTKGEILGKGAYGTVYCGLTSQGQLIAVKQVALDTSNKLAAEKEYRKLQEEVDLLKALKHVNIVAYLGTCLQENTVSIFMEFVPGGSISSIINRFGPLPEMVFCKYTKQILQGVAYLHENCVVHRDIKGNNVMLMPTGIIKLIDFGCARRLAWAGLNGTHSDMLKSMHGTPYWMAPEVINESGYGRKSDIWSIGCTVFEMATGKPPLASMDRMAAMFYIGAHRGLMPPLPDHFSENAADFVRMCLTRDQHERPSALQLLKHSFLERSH

`NCCCNc1nc2c(Br)c(Br)c(Br)c(Br)c2[nH]1` [Compound 11, N-(3-aminopropyl)-4,5,6,7-tetrabromo-1H-benzo[d]imidazol-2-amine] was tested, and the “% binding” value (MET(Y1235D)) was 70%, the remaining binding at 1 µM (RET(M918T)) was 100% and the remaining binding at 1 µM (CAMK1G) was 100%. The remaining binding at 1 µM (FGFR4) was 84%, the remaining binding at 1 µM (PKAC-alpha) was 68% and the “% binding” value (ULK3) was 100%. For the same compound, the remaining binding at 1 µM (CSNK1A1L) was 76%, the remaining binding at 1 µM (ADCK4) was 87% and the remaining binding at 1 µM (MLK2) was 100%. The remaining binding at 1 µM [1] was 97%, the remaining binding at 1 µM [2] was 55% and the “% binding” value [3] was 93%. For the same compound, the remaining binding at 1 µM (MRCKB) was 100%, the remaining binding at 1 µM (TRPM6) was 91% and the remaining binding at 1 µM (RIOK2) was 100%. For the same compound, the remaining binding at 1 µM (TAOK2) was 100%, the “% binding” value (CIT) was 93% and the remaining binding at 1 µM (STK16) was 87%. The remaining binding at 1 µM (IGF1R) was 100%, the remaining binding at 1 µM (PRKX) was 100% and the remaining binding at 1 µM (PAK6) was 99%. The remaining binding at 1 µM (YSK4) was 95%, the “% binding” value (EGFR(L747-T751del.Sins)) was 100% and the remaining binding at 1 µM (MAPKAPK5) was 100%. For the same compound, the remaining binding at 1 µM (SRC) was 97%, the remaining binding at 1 µM (RAF1) was 86% and the remaining binding at 1 µM (LTK) was 100%. It also gave a remaining binding at 1 µM (PIK3CA(H1047L)) of 100%, a remaining binding at 1 µM (GRK4) of 100% and a remaining binding at 1 µM (CDKL1) of 100%. For the same compound, the “% binding” value (EGFR(T790M)) was 100%, the remaining binding at 1 µM (IKK-epsilon) was 100% and the remaining binding at 1 µM (HIPK4) was 53%.
